In the data set the test system is Yap1 mRNA. Nature of the data set: Antisense inhibition of human Yap1 in A-431 cells by cEt gapmers, single dose (Example 2, RTS4814). The class given is cell-based. The essentials: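 Free uptake, 2,000 nM, ~48 h, A-431 at 5,000 cells/well. Readout: RT-qPCR (RTS4814), RIBOGREEN-normalized, % UTC. 16-mer 3-10-3 cEt gapmers, full PS backbone, all C as 5-methylcytosine.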

The mark [1] stands for this setting: Table 22, Yap1 mRNA as percent of untreated control, 3-10-3 cEt gapmers, single dose.
The mark [2] stands for this setting: Table 20, Yap1 mRNA, percent of untreated control, 3-10-3 cEt gapmers targeting SEQ ID NO.: 1 and 2.
Where [3] appears, read: Table 18, A-431 cells, 5,000 cells per well, free uptake, 2,000 nM modified oligonucleotide, approx. 48 hours, RTS4814, normalized to RIBOGREEN, Yap1 mRNA as percent of untreated control.
[4] abbreviates: Table 6, A-431 cells, 5,000 cells per well, free uptake, 2,000 nM modified oligonucleotide, approx. 48 hours, RTS4814, normalized to RIBOGREEN, Yap1 mRNA relative to untreated control cells.
[5] abbreviates: Yap1 mRNA as percent of untreated control, A-431 cells, 3-10-3 cEt gapmers targeting SEQ ID NO.: 1, and 2, Table 31.
[6] abbreviates: Table 5, A-431 cells, 5,000 cells per well, free uptake, 2,000 nM modified oligonucleotide, approx. 48 hours, RTS4814, normalized to RIBOGREEN, Yap1 mRNA relative to untreated control cells.
[7] abbreviates: A-431 cells, 5,000 cells per well, free uptake, 2,000 nM modified oligonucleotide, approx. 48 hours, RTS4814, normalized to RIBOGREEN, Table 4, asterisk (*) = targets amplicon region of primer probe set.
Where [8] appears, read: Table 24, Yap1 mRNA as percent of untreated control, 3-10-3 cEt gapmers targeting SEQ ID NO.: 1, and 2.
Where [9] appears, read: Table 32, Yap1 mRNA, percent of untreated control, 3-10-3 cEt gapmers targeting SEQ ID NO.: 1, and 2.
The mark [10] stands for this setting: Table 33, Yap1 mRNA, percent of untreated control, 3-10-3 cEt gapmers targeting SEQ ID NO.: 1, and 2.
Setting [11] is: Yap1 mRNA as percent of untreated control, A-431 cells, 3-10-3 cEt gapmers targeting SEQ ID NO.: 1, and 2, Table 30.

Marks after values point to notes of the source that are not given here. Strand notation (5' to 3'): a small letter for the sugar, then the base; units joined by * are phosphorothioate-linked, units joined directly phosphodiester-linked; [ ] holds rarer units or linkages, { } end groups; capitals alone tell only the bases. k = constrained ethyl (cEt); [5mC] = 5-methylcytosine; d = 2'-deoxy (DNA)

Take “1076232 (kG*kT*kA*dA*dT*dA*d[5mC]*dA*d[5mC]*d[5mC]*dA*dT*dT*kT*kG*kG; antisense) [Compound 1076232]”: the “YAP1 (% UTC)” value under setting [1] was 15 % UTC.
Take “1076390 (kG*kA*kT*d[5mC]*dG*dA*dA*dA*dT*dA*dT*dT*d[5mC]*kG*kA*kG; antisense) [Compound 1076390]”: under setting [2], the “YAP1 (% UTC)” value amounted to 54 % UTC.
Regarding “1074436 (k[5mC]*kA*kT*dG*dA*dA*dG*d[5mC]*dA*dT*d[5mC]*dT*dG*kA*k[5mC]*kT; antisense) [Compound 1074436]”, the “YAP1 (% UTC)” value under setting [3] was 31* % UTC.
For the substance “1076260 (k[5mC]*kT*kT*dA*dA*dT*dT*dT*dA*dA*d[5mC]*dT*d[5mC]*k[5mC]*kT*kG; antisense) [Compound 1076260]”, the “YAP1 (% UTC)” value under setting [3] was found to be 3 % UTC.
For the substance “716486 (kA*kT*k[5mC]*dA*dT*dG*dA*dT*dT*dA*dT*d[5mC]*dT*k[5mC]*kT*kA; antisense) [Compound 716486]”, the “YAP1 (% UTC)” value under setting [4] was 68 % UTC.
Still for that read-out and setting: the same measure for “716537 (antisense kA*kT*kG*dT*dG*d[5mC]*dT*d[5mC]*d[5mC]*dA*dT*d[5mC]*dA*kA*k[5mC]*k[5mC]) [Compound 716537]”: 36 % UTC.
“1075857 (antisense k[5mC]*kT*kT*dA*dA*dA*d[5mC]*dA*dA*dT*d[5mC]*d[5mC]*d[5mC]*kT*kA*kA) [compound 1075857]”: the “YAP1 (% UTC)” value under setting [5] came out at 69 % UTC.
For the substance “716434 (kT*kA*kA*dA*dT*dG*d[5mC]*dT*dG*dT*dG*dA*d[5mC]*kA*kT*kG; antisense) [Compound 716434]”, under setting [6], the “YAP1 (% UTC)” value turned out to be 44 % UTC.
Take “716559 (k[5mC]*k[5mC]*kT*dA*dA*d[5mC]*dA*dT*dA*dT*dG*dA*dG*k[5mC]*kA*kT; antisense) [Compound 716559]”: the “YAP1 (% UTC)” value under setting [7] was 62 % UTC.
Take “1076134 (kG*kA*kT*dT*dA*dG*dA*dG*dT*dT*dG*dG*dG*k[5mC]*kA*kT; antisense) [Compound 1076134]”: the “YAP1 (% UTC)” value under setting [2] amounted to 10 % UTC.
Take “1075751 (kG*kA*kG*dG*dA*dA*d[5mC]*dA*dA*dG*dA*dT*d[5mC]*kT*k[5mC]*kA; antisense) [Compound 1075751]”: under “Table 21, Yap1 mRNA, percent of untreated control, 3-10-3 cEt gapmers targeting SEQ ID NO.: 1 and 2”, the “YAP1 (% UTC)” value worked out at 72 % UTC.
Turning to “1075185 (kG*k[5mC]*k[5mC]*d[5mC]*dA*dA*dG*dA*dA*d[5mC]*dA*d[5mC]*dT*kG*kG*kT; antisense) [compound 1075185]”, the “YAP1 (% UTC)” value under setting [5] was 78 % UTC.
Consider “1074920 (antisense kA*k[5mC]*kT*d[5mC]*dA*dA*dG*dT*dT*dA*d[5mC]*dA*dT*k[5mC]*k[5mC]*k[5mC]) [Compound 1074920]”, for which the “YAP1 (% UTC)” value under setting [1] came out at 68 % UTC.
As for “1075210 (antisense kG*kT*kA*dT*dT*dT*dT*dA*dA*d[5mC]*d[5mC]*dT*dA*kA*kA*k[5mC]) [Compound 1075210]”, the “YAP1 (% UTC)” value under setting [8] is 100 % UTC.
For the substance “1075121 (kA*kA*kA*dA*dT*dT*dA*dG*d[5mC]*d[5mC]*dT*dA*d[5mC]*k[5mC]*kA*k[5mC]; antisense) [compound 1075121]”, the “YAP1 (% UTC)” value under setting [5] came to 40 % UTC.
As to “1075878 (kG*kA*kT*dT*dA*dT*d[5mC]*dA*dA*dG*dT*dA*dG*kT*kT*kT; antisense) [Compound 1075878]”, under setting [2], the “YAP1 (% UTC)” value is 35 % UTC.
For the substance “1075409 (antisense k[5mC]*kT*kT*dT*dA*dA*dA*dT*dA*dG*d[5mC]*dA*dG*kA*kG*kG) [compound 1075409]”, the “YAP1 (% UTC)” value under setting [5] is 22 % UTC.
Turning to “1074738 (k[5mC]*kT*kT*d[5mC]*dA*dG*dG*dT*d[5mC]*dA*dG*dT*dA*k[5mC]*kA*kG; antisense) [compound 1074738]”, the “YAP1 (% UTC)” value under setting [9] is recorded as 12 % UTC.
On to “1075019 (antisense k[5mC]*kA*kT*dT*dA*dG*dA*dG*dT*dT*dT*dG*dA*kT*kT*kA) [Compound 1075019]”, for which the “YAP1 (% UTC)” value (Table 25, Yap1 mRNA as percent of untreated control, 3-10-3 cEt gapmers targeting SEQ ID NO.: 1, and 2) was 64 % UTC.
Regarding “1074547 (kG*kA*kG*d[5mC]*dA*d[5mC]*dT*d[5mC]*d[5mC]*d[5mC]*d[5mC]*dT*dA*kG*kG*k[5mC]; antisense) [compound 1074547]”, the “YAP1 (% UTC)” value under setting [10] worked out at 71 % UTC.
Same read-out and setting: then “1075027 (antisense kA*kA*kA*dT*dT*dT*dG*dA*dA*d[5mC]*dT*dG*d[5mC]*k[5mC]*k[5mC]*kA) [compound 1075027]”, with 28 % UTC.
In the case of “1075109 (antisense kA*k[5mC]*kT*dA*dA*dA*dA*dA*d[5mC]*dA*dT*dT*dG*kT*kG*kG) [Compound 1075109]”, the “YAP1 (% UTC)” value (Table 19, A-431 cells, 5,000 cells per well, free uptake, 2,000 nM modified oligonucleotide, approx. 48 hours, RTS4814, normalized to RIBOGREEN, Yap1 mRNA as percent of untreated control) came to 71 % UTC.
Consider “716407 (k[5mC]*kT*kT*dA*dG*dT*d[5mC]*d[5mC]*dA*d[5mC]*dT*dG*dT*k[5mC]*kT*kG; antisense) [Compound 716407]”, for which the “YAP1 (% UTC)” value under setting [6] is listed as 35 % UTC.
Turning to “1076081 (kG*kA*kT*dA*dA*dT*dT*d[5mC]*dA*d[5mC]*d[5mC]*d[5mC]*dT*kT*kG*kT; antisense) [compound 1076081]”, the “YAP1 (% UTC)” value under setting [5] was found to be 15 % UTC.
As to “716534 (antisense kG*kA*kT*dT*dA*dT*dA*dA*dA*dA*dT*dT*dG*kG*kT*kT) [Compound 716534]”, the “YAP1 (% UTC)” value under setting [4] is on record as 90 % UTC.
Regarding “1076401 (antisense kT*k[5mC]*kT*dA*dA*dA*dG*dA*d[5mC]*dT*d[5mC]*dT*d[5mC]*kA*kT*kT) [compound 1076401]”, the “YAP1 (% UTC)” value under setting [5] was determined as 31 % UTC.
In the case of “716575 (kA*kA*kA*dG*dA*dA*d[5mC]*dT*dT*dA*dG*dT*dT*k[5mC]*k[5mC]*k[5mC]; antisense) [Compound 716575]”, the “YAP1 (% UTC)” value under setting [6] worked out at 84 % UTC.
For the substance “716433 (kA*kG*k[5mC]*dA*dT*d[5mC]*dT*dG*dA*d[5mC]*dT*dT*d[5mC]*kT*kA*kA; antisense) [Compound 716433]”, the “YAP1 (% UTC)” value under setting [7] was found to be 20 % UTC.
On to “1075428 (antisense kT*kA*kT*dA*dT*dA*dA*dG*dG*d[5mC]*dA*dT*d[5mC]*kT*kT*kG) [Compound 1075428]”, for which, under setting [3], the “YAP1 (% UTC)” value came to 53 % UTC.
Regarding “716359 (k[5mC]*k[5mC]*k[5mC]*d[5mC]*dT*dG*dA*d[5mC]*d[5mC]*d[5mC]*dA*dG*dG*k[5mC]*kG*kA; antisense) [Compound 716359]”, the “YAP1 (% UTC)” value under setting [6] is reported as 101 % UTC.
In the case of “716495 (kG*kT*kT*dA*dT*dG*dA*dA*d[5mC]*d[5mC]*d[5mC]*dT*dT*kG*kA*kA; antisense) [Compound 716495]”, the “YAP1 (% UTC)” value under setting [4] is on record as 58 % UTC.
“1075408 (antisense k[5mC]*kT*kA*dA*dA*dA*dT*dG*dG*d[5mC]*dA*dT*dA*kA*kG*kG) [compound 1075408]”: the “YAP1 (% UTC)” value under setting [11] was determined as 23 % UTC.
As for “1074314 (antisense kA*kT*kT*dG*dA*dT*dA*dT*dT*d[5mC]*d[5mC]*dG*d[5mC]*kA*kT*kT) [Compound 1074314]”, under setting [8], the “YAP1 (% UTC)” value amounted to 12 % UTC.
For “716405 (kT*kG*kT*dT*dA*dA*dG*dG*dA*dA*dA*dG*dG*kA*kT*k[5mC]; antisense) [Compound 716405]”, the “YAP1 (% UTC)” value under setting [4] is 149 % UTC.
As for “1075593 (k[5mC]*kA*kT*dT*dA*dG*dA*dG*dT*dA*dT*dG*dA*kA*k[5mC]*kT; antisense) [Compound 1075593]”, the “YAP1 (% UTC)” value (Table 23, Yap1 mRNA as percent of untreated control, 3-10-3 cEt gapmers, single dose) worked out at 99 % UTC.
As to “1075634 (antisense kA*kG*kA*d[5mC]*dT*dA*dT*dA*dT*dT*dG*dG*d[5mC]*kT*k[5mC]*k[5mC]) [compound 1075634]”, the “YAP1 (% UTC)” value under setting [9] is recorded as 65 % UTC.
On to “1075248 (kG*kT*kA*d[5mC]*dA*dA*dA*dA*dA*dG*d[5mC]*dG*dG*kT*k[5mC]*kG; antisense) [compound 1075248]”, for which the “YAP1 (% UTC)” value under setting [11] stood at 64 % UTC.
